The values below come from patent US20070010466A1 (priority 2005, published 2007).

Each structure is given as a SMILES string. Entries after “also recorded” stand apart in the source; their conditions may differ. A value given as a limit tells only on which side of the number the result lay.

The conditions of series [1]: clinical trials; cited from earlier work.
In series [2] the target is T1, P-gp function on circulating natural killer (NK) cells and leukemic blasts (Homo sapiens, UniProt P08183).
T1 construct: Pharmacodynamic assessments of cellular P-gp function were conducted using an accumulation assay with DiOC2 and flow cytometry; endogenous in cells; host or cells: circulating NK cells and leukemic blasts from AML patients
Put plainly: cellular P-gp function, DiOC2 accumulation assay with flow cytometry, in AML patients. The class given is in vivo. How it is done:
Cytarabine was also administered (100 mg/m^2/day) starting after the first dose of daunorubicin as a continuous intravenous infusion on days 1-7. Blood samples were taken at intervals for pharmacokinetic and pharmacodynamic studies. Pharmacokinetic drug determinations were conducted by HPLC. Pharmacodynamic assessments of cellular P-gp function were conducted using an accumulation assay with DiOC2 and flow cytometry. P-gp function was assessed on circulating natural killer (NK) cells and leukemic blasts. […] Means of 3 patients for each time point are shown.

For series [3] the following is noted: preclinical models, several oncolytics; cited from earlier work.

T1 sequence (P08183 whole entry): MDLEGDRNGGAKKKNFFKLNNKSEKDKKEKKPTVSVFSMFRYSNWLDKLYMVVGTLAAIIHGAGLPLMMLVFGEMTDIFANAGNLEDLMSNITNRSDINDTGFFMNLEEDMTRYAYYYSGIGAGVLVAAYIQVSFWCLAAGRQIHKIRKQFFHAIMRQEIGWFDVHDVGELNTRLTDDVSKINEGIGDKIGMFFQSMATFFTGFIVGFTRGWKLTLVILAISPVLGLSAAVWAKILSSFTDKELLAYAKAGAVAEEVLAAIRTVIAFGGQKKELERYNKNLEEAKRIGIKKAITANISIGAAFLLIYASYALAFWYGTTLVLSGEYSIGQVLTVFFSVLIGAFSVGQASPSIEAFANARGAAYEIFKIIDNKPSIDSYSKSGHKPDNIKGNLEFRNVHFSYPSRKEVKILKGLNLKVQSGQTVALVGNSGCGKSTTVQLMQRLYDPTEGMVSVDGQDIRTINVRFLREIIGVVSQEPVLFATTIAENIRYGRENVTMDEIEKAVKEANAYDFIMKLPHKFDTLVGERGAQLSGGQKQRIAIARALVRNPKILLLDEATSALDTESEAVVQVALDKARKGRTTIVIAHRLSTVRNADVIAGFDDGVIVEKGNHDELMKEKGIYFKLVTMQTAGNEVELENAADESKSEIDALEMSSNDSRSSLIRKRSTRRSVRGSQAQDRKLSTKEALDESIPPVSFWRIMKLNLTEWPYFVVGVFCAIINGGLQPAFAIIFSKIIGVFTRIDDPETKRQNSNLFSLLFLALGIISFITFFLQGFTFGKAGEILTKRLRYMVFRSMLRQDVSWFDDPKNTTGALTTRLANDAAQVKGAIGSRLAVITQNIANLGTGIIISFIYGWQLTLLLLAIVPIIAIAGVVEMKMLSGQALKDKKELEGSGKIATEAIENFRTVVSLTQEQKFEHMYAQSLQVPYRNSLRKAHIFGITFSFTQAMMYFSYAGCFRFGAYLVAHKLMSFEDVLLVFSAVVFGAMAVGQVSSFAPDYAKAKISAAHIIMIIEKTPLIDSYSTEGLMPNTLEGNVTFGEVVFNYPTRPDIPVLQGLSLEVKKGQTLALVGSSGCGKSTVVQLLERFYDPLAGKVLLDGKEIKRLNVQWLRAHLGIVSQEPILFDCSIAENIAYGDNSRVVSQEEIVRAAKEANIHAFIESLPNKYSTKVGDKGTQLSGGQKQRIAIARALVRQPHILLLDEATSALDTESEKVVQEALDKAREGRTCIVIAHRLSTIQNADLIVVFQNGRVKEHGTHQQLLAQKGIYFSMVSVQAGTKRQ

As to `C/C=C/C[C@@H](C)C(=O)[C@H]1C(=O)N[C@@H](C(C)C)C(=O)N(C)CC(=O)N(C)[C@@H](CC(C)C)C(=O)N[C@@H](C(C)C)C(=O)N(C)[C@@H](CC(C)C)C(=O)N[C@@H](C)C(=O)N[C@H](C)C(=O)N(C)[C@@H](CC(C)C)C(=O)N(C)[C@@H](CC(C)C)C(=O)N(C)[C@@H](C(C)C)C(=O)N1C` [valspodar], the “pharmacokinetic interaction with coadministered cytotoxic agents” value in series [1] was “significant pharmacokinetic interactions”.
As for `O[C@@H](COc1cccc2ncccc12)CN1CCN([C@@H]2c3ccccc3[C@@H]3[C@H](c4ccccc42)C3(F)F)CC1` [zosuquidar], in series [2] (after 72 hour infusion), the “continued inhibition of P-gp functional activity after infusion was halted” value is reported as “at least 12 hours”. The “time to potent inhibition of P-gp function after start of infusion” value in series [2] (both NK cells and leukemic blasts, 700 mg/day continuous iv infusion) was at most 2 h. Further, the “pharmacokinetic interaction with co-administered chemotherapy” value in series [3] is “no pharmacokinetic interaction; also recorded: minimal pharmacokinetic (PK) interactions”.
